# According to patent EP4692079A1, “CYP11A1 INHIBITOR AND USE THEREOF” (priority 2023, dated 2024):
# Like-named read-outs stand apart in the source and are kept apart here.
# What was measured:
# [1] = system: testosterone level in NCI-H295R cells; assay: cells; type: cell-based; settings: Homo sapiens, NCI-H295R, 72 h; for IC50: read-out: Testosterone level in H295R (Elisa) IC50 nM
# Description: The purpose of the experimental study was intended to detect the testosterone level in the NCI-H295R cells by adopting the Enzyme linked immunosorbent assay (ELISA), so as to evaluate the inhibitory effects of the compounds on the testosterone level in the NCI-H295R cells.
# The H295R cells were purchased from ATCC, the cell complete medium contained DMEM: F12+ 10% FBS +0.00625 mg/ml insulin +0.00625 mg/ml transferrin+6.25 ng/ml selenium +1.25 mg/ml BSA+0.00535 mg/ml linoleic acid, and the cells were cultured in a 37°C, 5% CO2 incubator. The cells in the exponential growth phase were collected, and cultured in a cytokine-free medium (phenol red 1640-free +1% PS+10% css FBS+1.25 mg/ml BSA +0.00625 mg/ml insulin + 0.00625 mg/ml transferrin+6.25 ng/ml selenium+0.00535 mg/ml linoleic acid) for three days. The cells in the exponential growth phase were collected on the third day. The cell suspension was adjusted with a cytokine-free medium to a corresponding concentration and plated at 60000 cells/well, with the volume being 90 µL/well. Subsequently, 10 µL of the compounds at different concentrations was added and the plate was incubated in a CO2 incubator for three days. After the incubation was completed, according to the operation instructions for testosterone Elisa kit (Beyotime, PT872), 50 µL of the cell culture supernatant was collected from each well and centrifuged at 500 g for 5 min at room temperature and then the resulting supernatant was collected. The samples were added to the corresponding wells at 25 µl/well, and then formulated horseradish peroxidase labelled testosterone was added at 75 µl/well. The mixture was fully mixed for 10 seconds. The reaction wells were sealed with a plate-sealing film (white) and the mixture was incubated at room temperature in the dark for 120 min. The plate was washed three times with a volume of 300 µl per well, and then placed onto thick absorbent paper and dried. Chromogenic reagent TMB solution was added at 100 µl/well. The reaction wells were sealed with a plate-sealing film (white) and the mixture was incubated at room temperature in the dark for 15-20 min. Subsequently, a termination solution was added at 50 µl/well, and after the mixture was fully mixed, the absorbance value OD450 was immediately measured. The absorbance readings were processed using Graphpad Prim 8.0 software and S-shaped concentration curves were plotted and the IC50 values were calculated using a four-parameter non-linear regression model.
# [2] = system: pregnenolone level in NCI-H295R cells; assay: cells; type: cell-based; settings: Homo sapiens, 72 h; for IC50: read-out: Pregnenolone level in H295R (Elisa) IC50 nM; for inhibition at 0.1 µM: read-out: Pregnenolone level in H295R (Elisa) inh.% 100 nM; for inhibition at 1 µM: read-out: Pregnenolone level in H295R (Elisa) inh.% 1000 nM
# Description: 2. The purpose of the experimental study was intended to detect the pregnenolone level in the NCI-H295R cells by adopting the Enzyme linked immunosorbent assay (ELISA), so as to evaluate the inhibitory effects of the compounds on the pregnenolone level in the NCI-H295R cells.
# The H295R cells were purchased from ATCC (CRL-2128), the cell complete medium contained DMEM: F12+ 10% FBS +0.00625 mg/ml insulin+0.00625 mg/mL transferrin+6.25 ng/mL selenium+1.25 mg/mL BSA+0.00535 mg/mL linoleic acid, and the cells were cultured in a 37°C, 5% CO2 incubator. The cells in the exponential growth phase were collected, and cultured in a cytokine-free medium (phenol red 1640-free +1% PS+10% css FBS+1.25 mg/mL BSA +0.00625 mg/mL insulin+0.00625 mg/mL transferrin+6.25 ng/mL selenium+0.00535 mg/mL linoleic acid) for three days. The cells in the exponential growth phase were collected on the third day. The cell suspension was adjusted with a cytokine-free medium to a corresponding concentration and plated at 60000 cells/well, with the volume being 90 µL/well. Subsequently, 10 µL of the compounds at different concentrations was added and the plate was incubated in a CO2 incubator for three days. After the incubation was completed, the cell culture supernatant was collected and centrifuged at 2°C-8°C at 800×g for 10 min. The resulting supernatant was collected. Determination was carried out according to the operation instructions for pregnenolone Elisa kit (Antibodies-A73791), and the OD450 signal was read.
# 2.1 Standard curve plotting. The standard concentration was taken as the abscissa and the OD450 value as the ordinate, the coordinate points of various standards were connected with a smooth line and a curve was fitted according to the four parameter logistic (4-PL) method.
# 2.2 Sample quantification: The corresponding concentration (CONC) of testosterone/pregnenolone in the sample was calculated using the absorbance value of the sample and the standard curve. According to formula (1), the inhibition rate of the compound at various concentrations was calculated, and S-shaped concentration curves were plotted and the IC50 values (i.e., concentration of the compound at which the inhibition rate was 50%) were calculated using a three parameter non-linear regression model in Graphpad Prim 8.0 software. CONC cpd was the concentration of the treated group, and CONC ctrl was the average concentration value of the solvent control group. Inhibition rate% = 100%−CONCcpd /CONCctrl × 100% [formula] Table 3 Inhibitory effects of compounds on pregnenolone level in NCI-H295R cells
# [3] = Pharmacokinetic test in mice; type: in vivo; settings: mouse, male ICR mice, plasma; for Vd: read-out: Vdss
# Description: 4.1. Experimental animals: Male ICR mice, 20-25 g, 6 mice/compound, were purchased from Chengdu Dossy Experimental Animals Co., Ltd.
# 4.2 Experimental design: on the day of the experiment, the ICR mice were randomly grouped according to their body weights. […] Table 6 Administration information
# Before and after administration, 0.06 mL of blood was taken from the orbit under isoflurane anaesthesia and placed in an EDTAK2 centrifuge tube. The tube was centrifuged at 5000 rpm at 4°C for 10 min, and plasma was collected. […] Before analysis and detection, all samples were stored at -80°C, and the samples were quantitatively analysed by LC-MS/MS.
# [4] = Pharmacokinetic test in rats; type: in vivo; settings: rat, male SD rats, plasma; for Vd: read-out: Vdss
# Description: 3.1 Experimental animals: Male SD rats (about 220 g, 6-8 weeks old, 6 rats/compound) were purchased from Chengdu Dossy Experimental Animals Co., Ltd.
# 3.2 Experimental design: On the day of the experiment, the SD rats were randomly grouped by body weight. […] Table 4 Administration information
# Before and after the administration, 0.1 ml of blood was taken from the orbit of the animals under isoflurane anaesthesia and placed in an EDTAK2 centrifuge tube. The blood was centrifuged at 5000 rpm and 4°C for 10 min to collect plasma. […] Before analysis and detection, all samples were stored at -80°C. Table 5 Pharmacokinetic parameters of test compounds in plasma of rats
# [5] = read-out: Testosterone level in H295R (Elisa) inh.% 100 nM, 100 nM compound, NCI-H295R cells, three days incubation
# [6] = read-out: Testosterone level in H295R (Elisa) inh.% 1000 nM, 1000 nM compound, NCI-H295R cells, three days incubation
# [7] = po, intragastric administration (10 mg/kg)
# [8] = intravenous administration (2.5 mg/kg)
# [9] = read-out: Testosterone level in H295R (Elisa) inh.% 100 nM
# [10] = read-out: Testosterone level in H295R (Elisa) inh.% 1000 nM
SMILES,IC50 [1] [nM],"inhibition at 0.1 µM [1, 5] [%]","inhibition at 1 µM [1, 6] [%]",IC50 [2] [nM],"AUC(0-t) [3, 7] [µg·h/mL]","half-life [3, 7] [h]","AUC(0-t) [3, 8] [µg·h/mL]","clearance [3, 8] [L/h/kg]","half-life [3, 8] [h]","Vd [3, 8] [L/kg]",inhibition at 0.1 µM [2] [%],inhibition at 1 µM [2] [%],"inhibition at 0.1 µM [1, 9] [%]","inhibition at 1 µM [1, 10] [%]","AUC(0-t) [4, 7] [µg·h/mL]","half-life [4, 7] [h]","AUC(0-t) [4, 8] [µg·h/mL]","clearance [4, 8] [L/h/kg]","half-life [4, 8] [h]","Vd [4, 8] [L/kg]"
O=C(N[C@H]1CC[C@H](COc2coc(CN3Cc4ccc(C(F)(F)F)cc4C3)cc2=O)CC1)C1CC1 [Compound 15],13,51,84.2,382,25.4,3.19,6.71,0.373,3.54,1.61,–,–,–,–,–,–,–,–,–,–
COC1CN(CC(=O)N2CCC(/C=C/c3coc(CN4Cc5ccc(C(F)(F)F)cc5C4)cc3=O)CC2)C1 [Compound 18],100,80.8,92.5,–,–,–,–,–,–,–,40.7,50.5,–,–,–,–,–,–,–,–
O=c1cc(CN2Cc3ccc(C(F)(F)F)cc3C2)occ1/C=C/[C@H]1CC[C@H](NC(=O)[C@H]2C[C@H](F)C2)CC1 [Compound 101],–,–,–,–,–,–,–,–,–,–,–,–,73,71,11.6,3.59,5.64,0.447,2.96,1.47
[2H]C([2H])([2H])C(=O)N[C@H]1CC[C@H](/C=C/c2coc(CN3Cc4ccc(C(F)(F)F)cc4C3)cc2=O)CC1 [Compound 80],–,71,84,190,–,–,–,–,–,–,38.1,59.1,–,–,–,–,–,–,–,–
Cn1cc(C(=O)N[C@H]2CC[C@H](COc3coc(CN4Cc5ccc(C(F)(F)F)cc5C4)cc3=O)CC2)cn1 [Compound 35],–,–,–,–,24.2,2.85,12.5,0.2,2.68,0.557,–,–,72.8,75.5,18.3,2.84,9.1,0.28,2.71,0.788
O=C(N[C@H]1CC[C@H](COc2coc(CN3Cc4ccc(C(F)(F)F)cc4C3)cc2=O)CC1)C1COC1 [Compound 63],–,–,–,–,–,–,–,–,–,–,–,–,64,75,19.1,2.18,–,–,–,–
O=C(OC1CC1)N1CCC(COc2coc(CN3Cc4ccc(OC5CC5)cc4C3)cc2=O)CC1 [Compound 27],50.1,78,68,–,–,–,–,–,–,–,65.5,67.5,–,–,–,–,–,–,–,–
O=C(N[C@H]1CC[C@@H](COc2coc(CN3Cc4ccc(C(F)(F)F)cc4C3)cc2=O)CC1)C1COC1 [Compound 54],–,–,–,–,28.1,2.97,5.87,0.431,2.98,1.17,–,–,53.2,72.2,–,–,–,–,–,–
O=c1cc(CN2Cc3ccc(C(F)(F)F)cc3C2)occ1/C=C/[C@H]1CC[C@H](NC(=O)[C@H]2C[C@@H](F)C2)CC1 [Compound 100],–,–,–,–,–,–,–,–,–,–,–,–,70,85,17.5,2.29,4.66,0.532,1.8,1.29
O=C(CC1CC1)N1CCC(/C=C/c2coc(CN3Cc4ccc(C(F)(F)F)cc4C3)cc2=O)CC1 [Compound 52],98.2,–,–,–,–,–,–,–,–,–,–,–,55.8,74.9,10.5,2.21,3.3,0.738,1.37,1.39
O=C(N[C@H]1CC[C@H](/C=C/c2coc(CN3Cc4ccc(C(F)(F)F)cc4C3)cc2=O)CC1)[C@H]1CC1(F)F [Compound 90],73,–,–,119,40.6,6.36,10.6,0.22,6.73,1.73,43.4,67,80,85,–,–,–,–,–,–
O=C(N[C@H]1CC[C@H](CCc2coc(CN3Cc4ccc(C(F)(F)F)cc4C3)cc2=O)CC1)C1CC(F)(F)C1 [Compound 95],–,57,81,–,–,–,–,–,–,–,50,66,–,–,–,–,–,–,–,–
C=C1CC(C(=O)N[C@H]2CC[C@H](/C=C/c3coc(CN4Cc5ccc(C(F)(F)F)cc5C4)cc3=O)CC2)C1 [Compound 116],–,60,66,–,–,–,–,–,–,–,48,75,–,–,–,–,–,–,–,–
Cc1nc(C(=O)N[C@H]2CC[C@H](/C=C/c3coc(CN4Cc5ccc(C(F)(F)F)cc5C4)cc3=O)CC2)co1 [Compound 84],–,–,–,121,–,–,–,–,–,–,–,–,–,–,–,–,–,–,–,–
[2H]C([2H])([2H])C(=O)N[C@H]1CC[C@H](COc2coc(CN3Cc4ccc(C(F)(F)F)cc4C3)cc2=O)CC1 [Compound 33],68,–,–,–,8.43,2.45,2.09,1.19,0.908,1.19,–,–,–,–,19.6,2.04,–,–,–,–
